Source: patent US11512075B2 (priority 2017, dated 2022)
“Also recorded” adds a separate entry of the source.

Tests used:
[1] = molecular target: T1, human KOR (Homo sapiens, UniProt P41145); assay type: cell-based
[2] = molecular target: T1, human KOR; assay type: binding
[3] = test system: chloroquine phosphate-induced pruritus in mice; design: species or system C57BL/6J mice; conditions: mouse, in vivo

Row | Compound | KOR agonist potency [1] | efficacy in G protein signaling (inhibition of cAMP accumulation) [1] | affinity for the κ-OR (radioligand competition binding, Ki) [2] | suppression of itch (scratching) response [3]
1 | COC(=O)[C@@H]1C[C@H](OC(C)=O)C(=O)[C@@H]2[C@H]3C[C@@H](c4ccoc4)OC(=O)[C@@H]3CC[C@]21C [20-nor-SalA, 20-nor-salvinorin A] | high potency | full agonist | high affinity | suppressed the itch response; also recorded: similarly effective to SalA and another conventional agonist (U50,488H)
2 | COC(=O)[C@@H]1C[C@H](OC(C)=O)C(=O)[C@H]2[C@@]1(C)CC[C@H]1C(=O)O[C@H](c3ccoc3)C[C@]21C [SalA, salvinorin A, reference compound] | – | slightly higher affinity and efficacy | – | suppressed the itch response
